Results on 30 compounds are retold here after US20250042853A1, “BICYCLIC COMPOUND AND APPLICATION THEREOF” (BETTA PHARMACEUTICALS CO., LTD, priority 2021, published 2025).

The subject of the first experiment is VEGFA. In words: VEGFA ELISA assay (IC50). Particulars: 786-O cells, 24 h, VEGFA in culture supernatant by ELISA; class symbols. In kind it is cell-based. The procedure: 786-O cells in the logarithmic growth phase were inoculated into a 96-well plate at a cell concentration of 65,000 cells per ml of culture liquid, 180 μL per well. The compounds were diluted to the corresponding concentrations, and 20 μL of compound solutions of various concentrations were added to the corresponding cell wells, so that the final concentrations of the compounds were 1.5 nM, 4.6 nM, 13.7 nM, 41.2 nM, 123.5 nM, 370.4 nM, 1111.1 nM, 3333.3 nM, and 10000 nM, respectively. After culturing for 24 h, the cell culture supernatant was collected and the VEGFA concentration was determined using an ELISA kit (purchased from Abeam). Finally, the reaction was terminated and the absorbance value of each well was measured at a wavelength of 450 nm using an ELISA reader. The IC50 values were calculated by GraphPadPrism. CellTiter-Glo reagent was used to measure cell viability.
(An ELISA detects its analyte on a solid surface through an enzyme-linked reagent.)
For orientation: IC50 means the concentration at which inhibition is half-maximal. Low values mean greater potency in that assay, high ones weaker potency in that assay. Consider `CS(=O)(=NC#N)c1cn(-c2ccc(F)c(C#N)c2)c2c1[C@H](O)C(F)(F)CC2` (stereo partly drawn) [Example 18, N—(((S)-1-(3-cyano-4-fluorophenyl)-5,5-difluoro-4-hydroxyl-4,5,6,7-tetrahydro-1H-indol-3-yl)(methyl)(oxo)-16-sulfino)cyanamide], for which the IC50 is no more than 500 nM.

The same experiment, now with this note: Homo sapiens, 786-0; 786-O cells, 24 h, VEGFA in culture supernatant by ELISA.
In turn, `OC1c2c(C(F)(F)F)cn(-c3ccc(F)c(CF)c3)c2CCC1(F)F` (stereo not drawn) [Example 2, 5,5-difluoro-1-(4-fluoro-3-(fluoromethyl)phenyl)-3-(trifluoromethyl)-4,5,6,7-tetrahydro-1H-indol-4-ol] registered an IC50 of 8.3 nM.

`N#Cc1ccc(-n2cc(C(F)(F)F)c3c2CCC(F)(F)[C@H]3O)cc1C(F)F` [Example 3, (S)-4-(5,5-difluoro-4-hydroxyl-3-(trifluoromethyl)-4,5,6,7-tetrahydro-1H-indol-1-yl)-2-(difluoromethyl)benzonitrile]: the IC50 was determined as 3 nM.

In turn, `N#Cc1cc(-n2cc(S(=O)(=O)C(F)F)c3c2CCC(F)(F)[C@H]3O)ccc1F` [Example 4, (S)-5-(3-((difluoromethyl)sulfonyl)-5,5-difluoro-4-hydroxyl-4,5,6,7-tetrahydro-1H-indol-1-yl)-2-fluorobenzonitrile] yielded an IC50 of 98 nM.

In the case of `CS(=O)(=O)c1cn(-c2ccc(F)c(C(F)F)c2)c2c1[C@H](O)C(F)(F)CC2` [Example 5, (S)-1-(3-(difluoromethyl)-4-fluorophenyl)-5,5-difluoro-3-(methylsulfonyl)-4,5,6,7-tetrahydro-1H-indol-4-ol], the IC50 was found to be 72 nM.

Take `N#Cc1cc(-n2cc(C(F)(F)C(F)(F)F)c3c2CCC(F)(F)C3O)ccc1F` (stereo not drawn) [Example 9, 5-(5,5-difluoro-4-hydroxyl-3-(perfluoroethyl)-4,5,6,7-tetrahydro-1H-indol-1-yl)-2-fluorobenzonitrile]: the IC50 came out at 47 nM.

With `CCS(=O)(=O)c1cn(-c2ccc(F)c(C(F)(F)F)c2)c2c1[C@H](O)C(F)(F)CC2` [Example 16, (S)-3-(ethylsulfonyl)-5,5-difluoro-1-(4-fluoro-3-(trifluoromethyl)phenyl)-4,5,6,7-tetrahydro-1H-indol-4-ol], 537 nM corresponded to half-maximal inhibition (IC50).

Compound `CS(=O)(=O)c1cn(-c2ccc(F)c(C(F)(F)F)c2)c2c1[C@H](O)C(F)(F)CC2` [Example 20, (S)-5,5-difluoro-1-(4-fluoro-3-(trifluoromethyl)phenyl)-3-(methylsulfonyl)-4,5,6,7-tetrahydro-1H-indol-4-ol] returned an IC50 of 39 nM.

`O=S(=O)(c1cn(-c2ccc(F)c(C(F)(F)F)c2)c2c1[C@H](O)C(F)(F)CC2)C(F)F` [Example 21, (S)-3-((difluoromethyl)sulfonyl)-5,5-difluoro-1-(4-fluoro-3-(trifluoromethyl)phenyl)-4,5,6,7-tetrahydro-1H-indol-4-ol]: the IC50 was found to be 12 nM.

Compound `N#Cc1cc(-n2c(F)c(S(=O)(=O)C(F)F)c3c2CCC(F)(F)[C@H]3O)ccc1F` [Example 22, (S)-5-(3-((difluoromethyl)sulfonyl)-2,5,5-trifluoroether-4-hydroxyl-4,5,6,7-tetrahydro-1H-indol-1-yl)-2-fluorobenzonitrile] had an IC50 of 86 nM.

Compound `CS(=O)(=O)c1cn(-c2ccc(F)c(Cl)c2)c2c1C(O)C(F)(F)CC2` (stereo not drawn) [Example 24, 1-(3-chloro-4-fluorophenyl)-5,5-difluoro-3-(methylsulfonyl)-4,5,6,7-tetrahydro-1H-indol-4-ol] registered an IC50 of 72 nM.

Consider `O=S(=O)(c1cn(-c2ccc(F)c(Cl)c2)c2c1C(O)C(F)(F)CC2)C(F)F` (stereo not drawn) [Example 25, 1-(3-chloro-4-fluorophenyl)-3-((difluoromethyl)sulfonyl)-5,5-difluoro-4,5,6,7-tetrahydro-1H-indol-4-ol], for which the IC50 was determined as 63 nM.

Turning to `O=S(=O)(c1cn(-c2ccc(F)c(C(F)F)c2)c2c1[C@@H](O)C(F)(F)CC2)C(F)F` [Example 26, (R)-1-(3-(difluoromethyl)-4-fluorophenyl)-3-((difluoromethyl)sulfonyl)-5,5-difluoro-4,5,6,7-tetrahydro-1H-indol-4-ol], half-maximal inhibition (IC50) required 628 nM.

The compound `N#Cc1cc(-n2cc(S(=O)(=O)C(F)F)c3c2CCC(F)(F)[C@H]3O)ccc1Cl` [Example 28, (S)-2-chloro-5-(3-((difluoromethyl)sulfonyl)-5,5-difluoro-4-hydroxyl-4,5,6,7-tetrahydro-1H-indol-1-yl)benzonitrile] yielded an IC50 of 118 nM.

Consider `CS(=O)(=O)c1cn(-c2ccc(C#N)c(C(F)F)c2)c2c1[C@H](O)C(F)(F)CC2` [Example 29, (S)-4-(5,5-difluoro-4-hydroxyl-3-(methylsulfonyl)-4,5,6,7-tetrahydro-1H-indol-1-yl)-2-(difluoromethyl)benzonitrile], for which the IC50 came out at 174 nM.

The compound `O=S(=O)(CF)c1cn(-c2ccc(F)c(C(F)(F)F)c2)c2c1[C@H](O)C(F)(F)CC2` [Example 30, (S)-5,5-difluoro-1-(4-fluoro-3-(trifluoromethyl)phenyl)-3-((fluoromethyl)sulfonyl)-4,5,6,7-tetrahydro-1H-indol-4-ol] yielded a 50% inhibitory concentration (IC50) of 45 nM.

For the compound `N#Cc1ccc(-n2cc(S(=O)(=O)C(F)(F)F)c3c2CCC(F)(F)[C@H]3O)cc1C(F)(F)F` [Example 31, (S)-4-(5,5-difluoro-4-hydroxyl-3-((trifluoromethyl)sulfonyl)-4,5,6,7-tetrahydro-1H-indol-1-yl)-2-(trifluoromethyl)benzonitrile], the IC50 stood at 21 nM.

Compound `N#Cc1ccc(-n2cc(S(=O)(=O)CF)c3c2CCC(F)(F)[C@H]3O)cc1C(F)(F)F` [Example 36, (S)-4-(5,5-difluoro-3-((fluoromethyl)sulfonyl)-4-hydroxyl-4,5,6,7-tetrahydro-1H-indol-1-yl)-2-(trifluoromethyl) benzonitrile] returned an IC50 of 108 nM.

For `N#Cc1ccc(-n2cc(S(=O)(=O)C(F)F)c3c2CCC(F)(F)[C@H]3O)cc1C#N` [Example 39, (S)-4-(3-((difluoromethyl)sulfonyl)-5,5-difluoro-4-hydroxyl-4,5,6,7-tetrahydro-1H-indol-1-yl)phthalonitrile], the IC50 was 140 nM.

Still in this experiment, the particulars now being: Homo sapiens, 786-0; 786-O cells, 24 h, VEGFA in culture supernatant by ELISA; class symbols.
Regarding `N#Cc1cc(-n2cc(C(F)(F)F)c3c2CCC(F)(F)C3O)cc(F)c1F` (stereo not drawn) [Example 1, 5-(5,5-difluoro-4-hydroxyl-3-(trifluoromethyl)-4,5,6,7-tetrahydro-1H-indol-1-yl)-2,3-difluorobenzonitrile], the IC50 is no more than 500 nM.

As to `N#Cc1cc(-n2cc(S(=O)(=O)C(F)(F)F)c3c2CCC(F)(F)[C@H]3O)ccc1F` [Example 10, (S)-5-(5,5-difluoro-4-hydroxyl-3-((trifluoromethyl)sulfonyl)-4,5,6,7-tetrahydro-1H-indol-1-yl)-2-fluorobenzonitrile], the IC50 was no more than 500 nM.

On to `N#CCS(=O)(=O)c1cn(-c2ccc(F)c(C(F)(F)F)c2)c2c1[C@H](O)C(F)(F)CC2` [Example 13, (S)-2-((5,5-difluoro-1-(4-fluoro-3-(trifluoromethyl)phenyl)-4-hydroxyl-4,5,6,7-tetrahydro-1H-indol-3-yl)sulfonyl)acetonitrile], for which the IC50 was in the range of 500 to 1500 nM.

The compound `N#Cc1cc(-n2cc(C(F)(F)C(N)=O)c3c2CCC(F)(F)C3O)ccc1F` (stereo not drawn) [Example 15, 2-(1-(3-cyano-4-fluorophenyl)-5,5-difluoro-4-hydroxyl-4,5,6,7-tetrahydro-1H-indol-3-yl)-2,2-difluoroacetamide] registered an IC50 of 500 to 1500 nM.

As for `N#Cc1cc(-n2cc(C(F)(F)C#N)c3c2CCC(F)(F)C3O)ccc1F` (stereo not drawn) [Example 17, 5-(3-(cyanodifluoromethyl)-5,5-difluoro-4-hydroxyl-4,5,6,7-tetrahydro-1H-indol-1-yl)-2-fluorobenzonitrile], the IC50 was no more than 500 nM.

Consider `N#CCS(=O)(=O)c1cn(-c2ccc(F)c(C(F)F)c2)c2c1[C@H](O)C(F)(F)CC2` [Example 19, (S)-2-((1-(3-(difluoromethyl)-4-fluorophenyl)-5,5-difluoro-4-hydroxyl-4,5,6,7-tetrahydro-1H-indol-3-yl)sulfonyl)acetonitrile], for which the IC50 lay within 500 to 1500 nM.

The compound `CS(=O)(=O)c1cn(-c2ccc(Cl)c(C#N)c2)c2c1[C@H](O)C(F)(F)CC2` [Example 27, (S)-2-chloro-5-(5,5-difluoro-4-hydroxyl-3-(methylsulfonyl)-4,5,6,7-tetrahydro-1H-indol-1-yl)benzonitrile] registered a half-inhibitory concentration (IC50) of no more than 500 nM.

Regarding `N#Cc1ccc(-n2cc(S(=O)(=O)C(F)F)c3c2CCC(F)(F)[C@H]3O)cc1C(F)(F)F` [Example 34, (S)-4-(3-((difluoromethyl)sulfonyl)-5,5-difluoro-4-hydroxyl-4,5,6,7-tetrahydro-1H-indol-1-yl)-2-(trifluoromethyl)benzonitrile], the IC50 is no more than 500 nM.

Compound `O=S(=O)(CF)c1cn(-c2ccc(F)c(Cl)c2)c2c1[C@H](O)C(F)(F)CC2` [Example 37, (S)-1-(3-chloro-4-fluorophenyl)-5,5-difluoro-3-((fluoromethyl)sulfonyl)-4,5,6,7-tetrahydro-1H-indol-4-ol] yielded an IC50 of no more than 500 nM.

For `N#Cc1cc(-n2cc(S(=O)(=O)C(F)(F)F)c3c2CCC(F)(F)[C@H]3O)ccc1Cl` [Example 40, (S)-2-chloro-5-(5,5-difluoro-4-hydroxyl-3-((trifluoromethyl)sulfonyl)-4,5,6,7-tetrahydro-1H-indol-1-yl)benzonitrile], the IC50 is no more than 500 nM.

`N#Cc1ccc(-n2cc(C(F)(F)C(F)(F)F)c3c2CCC(F)(F)C3O)cc1C(F)F` (stereo not drawn) [Example 41, 4-(5,5-difluoro-4-hydroxyl-3-(perfluoroethyl)-4,5,6,7-tetrahydro-1H-indol-1-yl)-2-(difluoromethyl)benzonitrile]: the IC50 is no more than 500 nM.
